In patent US20060183902A1, “Dihydroindolyl methanones as alpha 1a/1d adrenoreceptor modulators for the treatment of benign prostatic hypertrophy and lower urinary tract symptoms” (priority 2005, published 2006):
Where “and” joins values, the source holds several entries; their conditions need not be identical. Identical values can stand only once. Like-named read-outs stand apart in the source and are kept apart here.

How the values were obtained:
α1b-AR = target: T1, α1b-AR (Homo sapiens, UniProt P35368); experiment: α1-Adrenergic receptor radio-ligand (125I-HEAT) binding assay, α1b subtype; settings: COS-7 cell membranes transfected with α1b-AR, 125I-HEAT 50 pM
T1 construct: expressed in transfected cells; host or cells: COS-7
T1 sequence (P35368 1-520): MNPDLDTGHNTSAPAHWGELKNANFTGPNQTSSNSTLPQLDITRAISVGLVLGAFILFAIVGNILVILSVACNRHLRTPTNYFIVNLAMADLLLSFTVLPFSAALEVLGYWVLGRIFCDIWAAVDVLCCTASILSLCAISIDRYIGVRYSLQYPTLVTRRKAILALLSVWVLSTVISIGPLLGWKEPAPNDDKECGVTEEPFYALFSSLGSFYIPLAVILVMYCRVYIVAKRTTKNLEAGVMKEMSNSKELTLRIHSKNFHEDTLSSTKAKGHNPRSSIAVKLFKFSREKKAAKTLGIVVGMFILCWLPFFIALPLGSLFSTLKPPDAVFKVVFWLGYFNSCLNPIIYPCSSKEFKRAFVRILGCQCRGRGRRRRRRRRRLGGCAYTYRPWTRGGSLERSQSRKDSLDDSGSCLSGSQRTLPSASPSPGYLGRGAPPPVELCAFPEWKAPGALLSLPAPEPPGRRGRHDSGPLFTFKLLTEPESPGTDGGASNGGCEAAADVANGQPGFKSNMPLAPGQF
Procedure: (§1) Membranes were prepared from COS-7 cells (African Green monkey kidney SV40-transformed cells) that had been transfected with one of the three α1-AR subtypes by the following method:
(§2) COS cells from ten 100 mm tissue culture plates were scraped into a 5 mL volume of TE (a mixture of 50 mM tris(hydroxymethyl)aminomethane hydrochloride (Tris-HCl) and 5 mM ethylenediaminetetraacetic acid (EDTA) at pH 7.4). The cell suspension was disrupted with a Brinkman Polytron (at a setting of 8) for 10 sec. The disrupted cells were centrifuged at 1000×g for 10 min at 4° C. Supernatants were centrifuged at 34,500×g for 20 min at 4° C. The membrane pellets were suspended in a 2 mL volume of TNE (a mixture of 50 mM Tris-HCl, 5 mM EDTA and 150 mM NaCl at pH7.4). An aliquot of the membrane suspension was stored at −70° C. until use. The protein concentration was determined using a BioRad “DC” protein assay kit following membrane solubilization with Triton X-100.
(§3) Triplicate determinations of radio-ligand binding in the presence of increasing concentrations of testing compound were made. The reagents were added to 96-well polypropylene plate wells. Each assay well contained 140 μL TNE, 25 μL ^125I-2-(β-4-hydroxyplenyl)ethylaminomethyltetralone (^125I-HEAT) (specific activity 2200 Ci/mmol, Dupont-New England Nuclear, 50 pM final), 10 μL testing compound dissolved in dimethyl sulfoxide (DMSO) (1 pM to 10 μM in half-log increments, final), and 25 μL appropriate α1-AR membrane subtype suspension in TNE (0.5 ng/μL for the α1a and α1b subtypes and 13 ng/μL for the α1d subtype). The plate was incubated at rt for 1 hr. The contents of the wells were filtered through a glass filter (type C) (GF/C) membrane Unifilter plate (Packard Instruments) using the Packard Filtermate cell harvester. The filter plates were dried in a vacuum oven for 30 min at 40° C. 25 μL Microscint 20 liquid scintillation fluid (Packard Instuments) was added to each well. The radioactive content was analyzed in the TopCount microplate scintillation counter (Packard Instruments).
(§4) The Ki values (in nM) shown in Table 1 were determined using GraphPad Prism software.

α1a-AR = target: T2, α1a-AR (Homo sapiens, UniProt P35348); experiment: α1-Adrenergic receptor radio-ligand (125I-HEAT) binding assay, α1a subtype; settings: COS-7 cell membranes transfected with α1a-AR, 125I-HEAT 50 pM
T2 construct: expressed in transfected cells; host or cells: COS-7
T2 sequence (P35348 1-466): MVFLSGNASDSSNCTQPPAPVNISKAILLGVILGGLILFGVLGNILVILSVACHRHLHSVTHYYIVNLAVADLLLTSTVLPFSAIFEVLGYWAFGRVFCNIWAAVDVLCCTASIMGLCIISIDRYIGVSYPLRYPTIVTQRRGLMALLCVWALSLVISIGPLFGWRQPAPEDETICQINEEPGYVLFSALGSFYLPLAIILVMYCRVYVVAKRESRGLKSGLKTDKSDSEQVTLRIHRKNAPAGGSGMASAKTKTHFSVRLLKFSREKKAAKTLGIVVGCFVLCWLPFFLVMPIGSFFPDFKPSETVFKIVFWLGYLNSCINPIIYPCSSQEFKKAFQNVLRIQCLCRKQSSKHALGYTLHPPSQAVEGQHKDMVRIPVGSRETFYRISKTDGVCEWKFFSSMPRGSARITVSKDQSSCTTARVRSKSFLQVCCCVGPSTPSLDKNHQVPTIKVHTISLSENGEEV
Procedure: as §1, §2, §3, §4

α1d-AR = target: T3, α1d-AR (Homo sapiens, UniProt P25100); experiment: α1-Adrenergic receptor radio-ligand (125I-HEAT) binding assay, α1d subtype; settings: COS-7 cell membranes transfected with α1d-AR, 125I-HEAT 50 pM
T3 construct: expressed in transfected cells; host or cells: COS-7
T3 sequence (P25100 1-572): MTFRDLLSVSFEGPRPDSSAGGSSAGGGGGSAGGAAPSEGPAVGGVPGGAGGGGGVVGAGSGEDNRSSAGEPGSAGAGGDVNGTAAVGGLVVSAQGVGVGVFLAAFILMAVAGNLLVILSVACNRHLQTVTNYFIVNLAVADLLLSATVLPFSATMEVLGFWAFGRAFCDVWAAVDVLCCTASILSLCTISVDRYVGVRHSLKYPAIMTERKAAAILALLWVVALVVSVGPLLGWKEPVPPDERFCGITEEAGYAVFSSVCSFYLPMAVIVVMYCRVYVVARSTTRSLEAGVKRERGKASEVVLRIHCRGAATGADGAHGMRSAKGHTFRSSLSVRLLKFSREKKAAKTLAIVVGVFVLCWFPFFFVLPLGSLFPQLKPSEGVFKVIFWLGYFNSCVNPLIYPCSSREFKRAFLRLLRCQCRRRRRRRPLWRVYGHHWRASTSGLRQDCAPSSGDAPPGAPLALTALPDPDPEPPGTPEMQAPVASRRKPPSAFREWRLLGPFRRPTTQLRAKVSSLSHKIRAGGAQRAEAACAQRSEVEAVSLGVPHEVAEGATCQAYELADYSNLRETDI
Procedure: as §1, §2, §3, §4

[1] = read-out: Receptor Binding, Ki α1b-AR
[2] = read-out: Receptor Binding, Ki α1a-AR
[3] = read-out: Receptor Binding, Ki α1d-AR

Row | Compound | Ki (α1b-AR; [1]) | Ki (α1a-AR; [2]) | Ki (α1d-AR; [3]) | Ki (α1b-AR; Receptor Binding, Ki α1b-AR) [nM] | Ki (α1a-AR; Receptor Binding, Ki α1a-AR) [nM] | Ki (α1d-AR; Receptor Binding, Ki α1d-AR) [nM]
1 | CC(C)Oc1ccccc1N1CCN(Cc2cccc(C(=O)N3CCc4ccc(N)cc43)c2)CC1 [Cpd 5, (6-amino-2,3-dihydro-indol-1-yl)-{3-[4-(2-isopropoxy-phenyl)-piperazin-1-ylmethyl]-phenyl}-methanone] | 143 nM | 1.9 nM | 2 nM |  |  | 
2 | COc1cccc(OC)c1CNc1ccc2c(c1)N(C(=O)c1cccc(CN3CCN(c4ccccc4OC(C)C)CC3)c1)CC2 [Cpd 7, [6-(2,6-dimethoxy-benzylamino)-2,3-dihydro-indol-1-yl]-{3-[4-(2-isopropoxy-phenyl)-piperazin-1-ylmethyl]-phenyl}-methanone] | 684 nM | 11 nM | 16 nM |  |  | 
3 | CCCCCCCCc1ccc(CNc2ccc3c(c2)N(C(=O)c2cccc(CN4CCN(c5ccccc5OC(C)C)CC4)c2)CC3)cc1 [Cpd 10, {3-[4-(2-isopropoxy-phenyl)-piperazin-1-ylmethyl]-phenyl}-[6-(4-octyl-benzylamino)-2,3-dihydro-indol-1-yl]-methanone] |  | 836 nM | 250 nM |  |  | 
4 | Cc1ccc(OC(=O)Nc2ccc3c(c2)N(C(=O)c2cccc(CN4CCN(c5ccccc5OC(C)C)CC4)c2)CC3)cc1 [Cpd 12, (1-{3-[4-(2-isopropoxy-phenyl)-piperazin-1-ylmethyl]-benzoyl}-2,3-dihydro-1H-indol-6-yl)-carbamic acid p-tolyl ester] |  |  |  | 495 | 3.3 | 5.7
5 | CC(C)Oc1ccccc1N1CCN(Cc2cccc(C(=O)N3CCc4ccc(NC(=S)Nc5ccccc5)cc43)c2)CC1 [Cpd 13, 1-(1-{3-[4-(2-isopropoxy-phenyl)-piperazin-1-ylmethyl]-benzoyl}-2,3-dihydro-1H-indol-6-yl)-3-phenyl-thiourea] | 305 nM | 33 nM | 4 nM and 3.11 nM |  |  | 
6 | CC(C)Oc1ccccc1N1CCN(Cc2cccc(C(=O)N3CCc4cc(NC(=O)Nc5ccc(Cl)cc5Cl)ccc43)c2)CC1 [Cpd 14, 1-(2,4-dichloro-phenyl)-3-(1-{3-[4-(2-isopropoxy-phenyl)-piperazin-1-ylmethyl]-benzoyl}-2,3-dihydro-1H-indol-5-yl)-urea] |  | 22 nM | 4 nM |  |  | 
7 | CC(=O)Nc1ccc(S(=O)(=O)Nc2ccc3c(c2)N(C(=O)c2cccc(CN4CCN(c5ccccc5OC(C)C)CC4)c2)CC3)cc1 [Cpd 15, N-[4-(1-{3-[4-(2-isopropoxy-phenyl)-piperazin-1-ylmethyl]-benzoyl}-2,3-dihydro-1H-indol-6-ylsulfamoyl)-phenyl]-acetamide] | 91 nM | 1 nM | 700 nM |  |  | 
8 | CC(C)Oc1ccccc1N1CCN(Cc2cccc(C(=O)N3CCc4ccc(NC5CCc6ccccc6C5)cc43)c2)CC1 (stereo not shown) [Cpd 16, {3-[4-(2-isopropoxy-phenyl)-piperazin-1-ylmethyl]-phenyl}-[6-(1,2,3,4-tetrahydro-naphthalen-2-ylamino)-2,3-dihydro-indol-1-yl]-methanone] | 282 nM | 5.5 nM | 3.4 nM |  |  | 
9 | CC(C)Oc1ccccc1N1CCN(Cc2cccc(C(=O)N3CCc4cc(NS(N)(=O)=O)ccc43)c2)CC1 [Cpd 17, N-(1-{3-[4-(2-isopropoxy-phenyl)-piperazin-1-ylmethyl]-benzoyl}-2,3-dihydro-1H-indol-5-yl)-sulfamide] | 812 nM | 14 nM | 7.6 nM |  |  | 
10 | CC(C)Oc1ccccc1N1CCN(Cc2cccc(C(=O)N3CCc4ccc(NS(N)(=O)=O)cc43)c2)CC1 [Cpd 20, N-(1-{3-[4-(2-isopropoxy-phenyl)-piperazin-1-ylmethyl]-benzoyl}-2,3-dihydro-1H-indol-6-yl)-sulfamide] | 494 nM and 394 nM | 4.7 nM and 8.1 nM | 1.9 nM and 2.6 nM |  |  | 
11 | CC(C)Oc1ccccc1N1CCN(Cc2cccc(C(=O)N3CCc4cc(NC(=O)Nc5ccccc5)ccc43)c2)CC1 [Cpd 21, 1-(1-{3-[4-(2-isopropoxy-phenyl)-piperazin-1-ylmethyl]-benzoyl}-2,3-dihydro-1H-indol-5-yl)-3-phenyl-urea] | 1390 nM | 73 nM | 12.5 nM |  |  | 
12 | CC(C)Oc1ccccc1N1CCN(Cc2cccc(C(=O)N3CCc4ccc(NC(=O)Nc5ccccc5)cc43)c2)CC1 [Cpd 22, 1-(1-{3-[4-(2-isopropoxy-phenyl)-piperazin-1-ylmethyl]-benzoyl}-2,3-dihydro-1H-indol-6-yl)-3-phenyl-urea] | 251 nM | 39 nM | 5 nM |  |  | 
13 | COc1ccc(OC)c2c1CC(Nc1ccc3c(c1)N(C(=O)c1cccc(CN4CCN(c5ccccc5OC(C)C)CC4)c1)CC3)C2 [Cpd 29, [6-(4,7-dimethoxy-indan-2-ylamino)-2,3-dihydro-indol-1-yl]-{3-[4-(2-isopropoxy-phenyl)-piperazin-1-ylmethyl]-phenyl}-methanone] | 847 nM | 20.8 nM |  |  |  | 
14 | CC(C)Oc1ccccc1N1CCN(Cc2cccc(C(=O)N3CCc4ccc(NCc5ccccc5F)cc43)c2)CC1 [Cpd 44, [6-(2-fluoro-benzylamino)-2,3-dihydro-indol-1-yl]-{3-[4-(2-isopropoxy-phenyl)-piperazin-1-ylmethyl]-phenyl}-methanone] |  | 1.3 nM | 4.2 nM |  |  | 
15 | CC(C)(C)OC(=O)N1CCN(Cc2cccc(C(=O)N3CCc4ccccc43)c2)CC1 [Cpd 54, 4-[3-(2,3-dihydro-indole-1-carbonyl)-benzyl]-piperazine-1-carboxylic acid tert-butyl ester] |  | 67.5 nM |  |  |  | 
16 | O=C(c1cccc(CN2CCN(c3ccccc3OCC(F)(F)F)CC2)c1)N1CCc2ccccc21 [Cpd 63, (2,3-dihydro-indol-1-yl)-(3-{4-[2-(2,2,2-trifluoro-ethoxy)-phenyl]-piperazin-1-ylmethyl}-phenyl)-methanone] |  |  | 0.5 nM and 1.9 nM |  |  | 
